# Measured values: paper PMC11320730, “5-Methoxy-2-aminoindane Reverses Diet-Induced Obesity and Improves Metabolic Parameters in Mice: A Potential New Class of Antiobesity Therapeutics” (ACS Pharmacology & Translational Science, 2024)
# Experiments:
# C57Bl/6 mice [1] = test: Acute effect of MEAI on food and water intake and metabolic parameters (Promethion); type: in vivo; conditions: lean male mice, vs vehicle
# Description: (§1) Male 6-week-old C57Bl/6 mice (Harlan, Israel) were maintained in standard conditions under a 12 h light/dark cycle and fed ad libitum. A total of 32 animals were divided into four experimental groups (N = 8 mice per group) receiving single doses of 40, 60, or 100 mg/kg of MEAI or vehicle (sterile water), which was administered via oral gavage 2 h prior to the dark phase. The animals were monitored for 48 h postdose for drug tolerability, food and water intakes, and activity and metabolic parameters. At the end of the experiment, the animals were euthanized, and tissues (brain, liver, fat, and kidney) and blood were collected and stored in a frozen state for future analyses.
# The metabolic profiles and food and water intakes of the mice were assessed using the Promethion High-Definition Behavioral Phenotyping System (Sable Instruments, Inc., Las Vegas, Nevada, USA). MetaScreen software version 2.2.18.0 was used for data acquisition and instrument control. Raw data were processed using ExpeData version 1.8.4 with an analysis script detailing all aspects of the data transformation. Mice with free access to food and water, housed at temperatures of (22–23 °C), were subjected to a standard 12 h light/12 h dark cycle, which consisted of a 48 h acclimation period followed by 24 h of sampling after dosing. Respiratory gases were measured using the GA-3 gas analyzer (Sable Systems, Inc., Las Vegas, Nevada, USA) employing a pull-mode negative-pressure system. Airflow was measured and controlled by an FR-8 instrument (Sable Systems, Inc., Las Vegas, Nevada, USA) at a flow rate of 2000 mL/min. Water vapor was continuously measured, and its dilution effect on O2 and CO2 was mathematically compensated. Respiratory exchange rate (RER) was calculated as the ratio of CO2 produced (VCO2) to O2 consumed (VO2) using eq 1): [drawing 1] 1
# Total energy expenditure (TEE) was calculated using VO2 and RER, according to eq 2: [drawing 2] 2
# Fat oxidation (FO) and carbohydrate oxidation (CHO) were calculated using VO2 and VCO2 based on eqs 3 and 4, respectively: [drawing 3] 3 [drawing 4] 4
# Energy balance and energy flux were derived from eqs 5 and 6: [drawing 5] 5 [drawing 6] 6
# DIO C57BL/6 mice [2] = test: Effect of MEAI on obesity: body weight and body composition (EchoMRI) in DIO mice; type: in vivo; conditions: 28 days
# Description: (§2) Male C57BL/6 mice were used to establish DIO by feeding them a high-fat diet (HFD; 60% cal/L fat, 20% cal/L protein, and 20% cal/L carbohydrates; Research Diet, D12492) for 18 weeks. After this period, mice were treated with either vehicle (sterile water, N = 8) or MEAI (N = 11) daily for 28 days by gavage at a dose of 40 mg/kg/day. Age-matched control mice (N = 10) on a standard diet (STD; 14% kcal fat, 24% kcal protein, 62% kcal carbohydrates; NIH-31 rodent diet) received vehicle daily. The body weight of all mice was monitored daily, and total body fat and lean mass were determined by EchoMRI-100H (Echo Medical Systems LLC, Houston, Texas, USA). On day 29, at the end of the experimental period, mice were euthanized by a cervical dislocation under anesthesia. The kidneys, brain, liver, and fat pads were removed and weighed, and samples were either snap-frozen or fixed in buffered 4% formalin. Trunk blood was collected to determine the biochemical parameters.
# 5-HT2B receptor = target: 5-HT2B receptor; parameters: method as in PMID 30904940; conditions: cited from earlier work
# DIO C57BL/6 mice [3] = test: Wheel running and locomotor activity in DIO mice; type: in vivo; conditions: 40 mg/kg/day
# Description: as §2
# (§3) The activity energy expenditure was calculated based on eq 7: [drawing 7] 7
# (§4) The assessment of wheel running and locomotor activity was performed by using the Promethion High-Definition Behavioral Phenotyping System (Sable Instruments, Inc., Las Vegas, Nevada, USA). Wheel revolutions were measured with a monitor that recorded voluntary wheel running activity, and locomotor activity was quantified using disruptions of infrared XYZ beam arrays with a beam spacing of 0.25 cm. Pedestrian locomotion represented the sum of all directed ambulatory locomotion within the beam break system, using a speed cutoff of 1 cm/s. Total distance represented the sum of all distances traveled within the beam break system, not including any distance run on the wheel in meters (m); this included fine movements (such as grooming and scratching).
# DIO C57BL/6 mice [4] = test: Glucose tolerance test (ipGTT) and insulin tolerance test (ipITT) in DIO mice; type: in vivo; conditions: 40 mg/kg/day
# Description: as §2
# On day 25 of the experiment, mice were subjected to an overnight fasting and then injected with glucose (1.5 g/kg i.p.) on the following day (day 26). Blood glucose levels were determined at 0, 15, 30, 45, 60, 90, and 120 min after injection using the Contour glucometer (Bayer, Pittsburgh, Pennsylvania, USA). The mice were then fasted for 6 h the next day (day 27) before being administered insulin (0.75 U/kg, i.p.; Actrapid vials, Novo Nordisk A/S, Bagsværd, Denmark). Blood glucose levels were determined at the same intervals as those described above. To assess insulin resistance, the homeostasis model assessment insulin resistance (HOMA-IR) was calculated as fasting serum insulin ([μU/mL] × fasting plasma glucose [mmol/L]/22.5). The relative insulin sensitivity index (ISI) was calculated as 1/(glucose × insulin) × 1000, with glucose expressed as mg/dL and insulin as mU/L.
# C57Bl/6 mice [5] = test: Acute effect of MEAI on wheel running and locomotor activity; type: in vivo; conditions: lean male mice, vs vehicle
# Description: as §1, §3, §4
# [6] = single oral dose 40, 60 or 100 mg/kg
# [7] = vs HFD-vehicle, did not surpass STD-vehicle
# [8] = single oral dose, all doses (40, 60, 100 mg/kg)
smiles,measurement,setting,value
"COc1ccc2c(c1)CC(N)C2.Cl (stereo not drawn) [MEAI, 2,3-Dihydro-5-methoxy-1H-inden-2-amine hydrochloride]",hourly average energy expenditure (TEE/h),"C57Bl/6 mice [1]; single oral dose 40, 60 or 100 mg/kg, across 24 h",significant dose-dependent increase
same,feeding patterns (food intake),"C57Bl/6 mice [1]; single oral dose 40, 60 or 100 mg/kg, dark and light phases",did not reach statistical significance
same,water consumption,C57Bl/6 mice [1]; [6],no notable changes
same,respiratory exchange ratio (RER),"C57Bl/6 mice [1]; single oral dose 60 and 100 mg/kg, light phase",markedly increased
same,carbohydrate oxidation (CHO) rate,"C57Bl/6 mice [1]; single oral dose, higher doses",elevations
same,fat oxidation (FO) rate,"C57Bl/6 mice [1]; single oral dose, higher doses",elevations
same,total daily TEE,"C57Bl/6 mice [1]; single oral dose, particularly at 60 mg/kg",significant elevation
same,carbon dioxide production (VCO2),C57Bl/6 mice [1]; single oral dose,increases
same,energy balance,C57Bl/6 mice [1]; single oral dose,did not lead to immediate changes
same,oxygen consumption (VO2),C57Bl/6 mice [1]; single oral dose,increases
same,decrease in total body weight,"DIO C57BL/6 mice [2]; DIO mice, 40 mg/kg/day by gavage, compared to obese vehicle-treated group",~15%
same,adiposity associated with obesity,"DIO C57BL/6 mice [2]; DIO mice, 40 mg/kg/day",reduced
same,lean body mass ratio,"DIO C57BL/6 mice [2]; DIO mice, 40 mg/kg/day",maintaining
same,net lean mass,"DIO C57BL/6 mice [2]; DIO mice, 40 mg/kg/day",maintaining
same,overall fat mass,"DIO C57BL/6 mice [2]; DIO mice, 40 mg/kg/day",reducing
same,body weight,"DIO C57BL/6 mice [2]; HFD-fed (DIO) mice, 40 mg/kg/day by gavage",significantly reduced
same,Ki,5-HT2B receptor,4.79 µM
same,voluntary wheel running,DIO C57BL/6 mice [3],increased capability to run on the voluntary wheel
same,wheel running speed,DIO C57BL/6 mice [3],comparable to the STD-vehicle-treated group
same,interaction times with food and water dispensers (time budget),DIO C57BL/6 mice [3]; Results section,extended
same,voluntary ambulatory behaviors (pedestrian activity and grooming),DIO C57BL/6 mice [3]; pronounced during nocturnal phase,significantly boosted
same,energy expenditure associated with activity levels,DIO C57BL/6 mice [3]; trend toward an increase,did not reach statistical significance
same,pedestrian activity,DIO C57BL/6 mice [3]; [7],increased
same,pedestrian speed,DIO C57BL/6 mice [3]; [7],increased
same,total distance traveled,DIO C57BL/6 mice [3]; [7],increased
same,HOMA-IR score,DIO C57BL/6 mice [4],improved
same,ISI score,DIO C57BL/6 mice [4],improved
same,fasting blood glucose levels,DIO C57BL/6 mice [4],reduced
same,glucose metabolism (glucose and insulin tolerance tests),DIO C57BL/6 mice [4]; days 26-27,significant improvement
same,pedestrian speed,C57Bl/6 mice [5]; single oral dose 60 mg/kg,significant increase
same,total number of beam breaks (ambulation and fine movements),C57Bl/6 mice [5]; [6],minor alterations
same,directed voluntary activity (pedestrian locomotion),"C57Bl/6 mice [5]; single oral dose, 40 mg/kg and above",significant and dose-dependent increase
same,average distance traveled within the cage,C57Bl/6 mice [5]; [8],significant elevations
same,total distance traveled within the cage,C57Bl/6 mice [5]; [8],significant elevations
same,sum of voluntary wheel running activity,"C57Bl/6 mice [5]; single oral dose, any dose tested",did not significantly affect
same,activity-specific energy expenditure,C57Bl/6 mice [5]; single oral dose,modest insignificant rise
